Test results: ChEMBL document CHEMBL1159298, “Leonticins A-C, three octasaccharide saponins from Leontice kiangnanensis” (J Nat Prod, 1996)
Active and inactive are the calls of the source. The calls are words filed in the database; no cut-off is given here.

Test system: KB
Test: Cytotoxicity against human KB cells at 4 ug/ml
Format: functional, cell-based

Compound | Activity
C[C@@H]1O[C@@H](O[C@H]2CC[C@]3(C)[C@H]4CC=C5[C@@H]6CC(C)(C)CC[C@]6(C(=O)O)[C@H](O)C[C@@]5(C)[C@]4(C)CC[C@H]3C2(C)C)[C@H](O[C@@H]2O[C@H](CO)[C@@H](O)[C@H](O)[C@H]2O)[C@H](O[C@@H]2O[C@H](CO)[C@@H](O[C@@H]3O[C@H](CO)[C@H](O)[C@H](O[C@@H]4OC[C@@H](O)[C@H](O)[C@H]4O)[C@H]3O)[C@H](O)[C@H]2O)[C@H]1O | inactive
C[C@@H]1O[C@@H](O[C@H]2[C@H](O)[C@@H](O)[C@H](O[C@H]3[C@H](O)[C@@H](O)[C@H](O[C@@H]4[C@@H](O)[C@@H](O)[C@H](O[C@H]5[C@H](O)[C@@H](O)[C@H](O[C@H]6[C@H](O)[C@@H](O)[C@H](OC(=O)[C@]78CCC(C)(C)C[C@H]7C7=CC[C@@H]9[C@@]%10(C)CC[C@H](O[C@@H]%11O[C@@H](C)[C@H](O)[C@@H](O)[C@H]%11O[C@@H]%11O[C@H](CO)[C@@H](O)[C@H](O)[C@H]%11O)[C@@](C)(CO)[C@@H]%10CC[C@@]9(C)[C@]7(C)CC8)O[C@@H]6CO)O[C@@H]5CO)O[C@H]4C)O[C@@H]3CO)O[C@@H]2CO)[C@H](O)[C@H](O)[C@H]1O | inactive
C[C@@H]1O[C@@H](O[C@H]2[C@H](O)[C@@H](O)[C@H](O[C@H]3[C@H](O)[C@@H](O)[C@H](OC(=O)[C@]45CCC(C)(C)C[C@H]4C4=CC[C@@H]6[C@@]7(C)CC[C@H](O[C@@H]8O[C@@H](C)[C@H](O)[C@@H](O[C@@H]9O[C@H](CO)[C@@H](O[C@@H]%10O[C@H](CO)[C@H](O)[C@H](O[C@@H]%11OC[C@@H](O)[C@H](O)[C@H]%11O)[C@H]%10O)[C@H](O)[C@H]9O)[C@H]8O[C@@H]8O[C@H](CO)[C@@H](O)[C@H](O)[C@H]8O)C(C)(C)[C@@H]7CC[C@@]6(C)[C@]4(C)CC5)O[C@@H]3CO)O[C@@H]2CO)[C@H](O)[C@H](O)[C@H]1O | inactive
C[C@@H]1O[C@@H](O[C@H]2CC[C@@]3(C)[C@@H](CC[C@]4(C)[C@@H]3CC=C3[C@@H]5CC(C)(C)CC[C@]5(C(=O)O)CC[C@]34C)[C@]2(C)CO)[C@H](O[C@@H]2O[C@H](CO)[C@@H](O)[C@H](O)[C@H]2O)[C@H](O)[C@H]1O | inactive
C[C@@H]1O[C@@H](O[C@H]2[C@H](O)[C@@H](O)[C@H](O[C@H]3[C@H](O)[C@@H](O)[C@H](OC(=O)[C@]45CCC(C)(C)C[C@H]4C4=CC[C@@H]6[C@@]7(C)CC[C@H](O[C@@H]8O[C@@H](C)[C@H](O)[C@@H](O[C@@H]9O[C@H](CO)[C@@H](O[C@@H]%10O[C@H](CO)[C@H](O)[C@H](O[C@@H]%11OC[C@@H](O)[C@H](O)[C@H]%11O)[C@H]%10O)[C@H](O)[C@H]9O)[C@H]8O[C@@H]8O[C@H](CO)[C@@H](O)[C@H](O)[C@H]8O)C(C)(C)[C@@H]7CC[C@@]6(C)[C@]4(C)C[C@H]5O)O[C@@H]3CO)O[C@@H]2CO)[C@H](O)[C@H](O)[C@H]1O | inactive
C[C@@H]1O[C@@H](O[C@H]2CC[C@]3(C)[C@H]4CC=C5[C@@H]6CC(C)(C)CC[C@]6(C(=O)O)CC[C@@]5(C)[C@]4(C)CC[C@H]3C2(C)C)[C@H](O[C@@H]2O[C@H](CO)[C@@H](O)[C@H](O)[C@H]2O)[C@H](O[C@@H]2O[C@H](CO)[C@@H](O[C@@H]3O[C@H](CO)[C@H](O)[C@H](O[C@@H]4OC[C@@H](O)[C@H](O)[C@H]4O)[C@H]3O)[C@H](O)[C@H]2O)[C@H]1O | inactive
